US20100158992A1, “PIPERAZINE-SUBSTITUTED PYRIDAZINONE DERIVATIVES USEFUL AS GLUCAN SYNTHASE INHIBITORS” (Schering Corporation, priority 2007, published 2010)
Values after ≈ are worked out from the molar mass of the structure shown.

What was measured:
Assay type in all cases: cell-based
[1] = tested on: Aspergillus fumigatus (ND158); assay: Microbroth susceptibility testing, filamentous fungi (MEC); conditions: strain ND158, minimum effective concentration
Description: Microbroth Susceptibility Testing Methods Filamentous fungi susceptibility testing procedure follows the NCCLS document M38-A (Reference Method for Broth Dilution Antifungal Susceptibility Testing of Filamentous Fungi; Approved Standard (ISBN 1-56238-470-8). NCCLS, 940 West Valley Road, Suite 1400 Wayne, Pa. 19087-1898 USA, 2002) with the following modifications: 1. The final test volume was 100 μl and not 200 μl as stipulated. 2. The end point used to assess the in vitro activity of glucan synthase inhibitors may require microscopic evaluation of cell morphology in the test wells (Kurtz et al., Antimicrobial Agents and Chemotherapy, 38, 1480-1489, 1994; […] et al., Antimicrobial Agents and Chemotherapy, 45, 327-330, 2001).

Candida albicans (C693) = assay: Microbroth susceptibility testing, yeast (MIC); conditions: strain C693
Description: (§1) Microbroth Susceptibility Testing Methods
(§2) Yeast susceptibility testing procedure followed the NCCLS document M27-A2 (Reference Method for Broth Dilution Antifungal Susceptibility Testing of Yeasts; Approved Standard-Second Edition (ISBN 1-56238-469-4). NCCLS, 940 West Valley Road, Suite 1400 Wayne, Pa. 19087-1898 USA, 2002) with the following modifications:
(§3) 1. The final test volume was 100 μl and not 200 μl as stipulated. 2. For testing Saccharomyces cerevisiae strain PM503 YPD was used in place of RPMI 1640 broth.

Candida glabrata (C624) = assay: Microbroth susceptibility testing, yeast (MIC); conditions: Nakaseomyces glabratus; strain C624
Description: as §1, §2, §3

Candida albicans (C697) = assay: Microbroth susceptibility testing, yeast (MIC); conditions: strain C697
Description: as §1, §2, §3

[2] = tested on: Saccharomyces cerevisiae (C51); assay: Microbroth susceptibility testing, yeast (MIC); conditions: read-out: MIC Saccharomyces cerevisiae (C51)
Description: as §1, §2, §3

With `CC(C)OCCCNc1c(N2CCN(S(=O)(=O)Cc3ccccc3)CC2)cnn(-c2ccccc2)c1=O` [compound 254] the minimal effective concentration [1] was 5 to 50 µg/mL, the MIC (Candida albicans (C693)) was 5 to 50 µg/mL (≈ 9.51 to 95.1 µM) and the MIC (Candida glabrata (C624)) was 1 to 5 µg/mL (≈ 1.9 to 9.51 µM). It also gave an MIC (Candida albicans (C697)) of 5 to 50 µg/mL (≈ 9.51 to 95.1 µM) and an MIC [2] of 1 to 5 µg/mL (≈ 1.9 to 9.51 µM).
`O=c1c(OC2Cc3ccccc3C2)c(N2CCN(Cc3ccoc3)CC2)cnn1-c1ccccc1` [compound 343] gave a minimal effective concentration [1] of 0.5 to 1 µg/mL, an MIC (Candida albicans (C693)) of 5 to 50 µg/mL (≈ 10.7 to 107 µM) and an MIC (Candida glabrata (C624)) of 1 to 5 µg/mL (≈ 2.13 to 10.7 µM). It also gave an MIC (Candida albicans (C697)) of 1 to 5 µg/mL (≈ 2.13 to 10.7 µM) and an MIC [2] of under 0.5 µg/mL.
`O=c1c(SCc2ccccc2)c(N2CCN(Cc3cc(O)cc(O)c3)CC2)cnn1-c1ccccc1` [compound 1] showed a minimal effective concentration [1] of 5 to 50 µg/mL, an MIC (Candida albicans (C693)) of 5 to 50 µg/mL (≈ 9.99 to 99.9 µM) and an MIC (Candida glabrata (C624)) of 1 to 5 µg/mL (≈ 2 to 9.99 µM). It also gave an MIC (Candida albicans (C697)) of 5 to 50 µg/mL (≈ 9.99 to 99.9 µM) and an MIC [2] of 5 to 50 µg/mL (≈ 9.99 to 99.9 µM).
`O=c1c(SCc2ccccc2)c(N2CCN(S(=O)(=O)c3ccccc3[N+](=O)[O-])CC2)cnn1-c1ccccc1` [compound 67] showed a minimal effective concentration [1] of 5 to 50 µg/mL, an MIC (Candida albicans (C693)) of 5 to 50 µg/mL (≈ 8.87 to 88.7 µM) and an MIC (Candida glabrata (C624)) of 1 to 5 µg/mL (≈ 1.77 to 8.87 µM). The MIC (Candida albicans (C697)) was 5 to 50 µg/mL (≈ 8.87 to 88.7 µM) and the MIC [2] was 5 to 50 µg/mL (≈ 8.87 to 88.7 µM).
Work on `O=c1c(OC2Cc3ccccc3C2)c(N2CCN(Cc3cccs3)CC2)cnn1-c1ccccc1` [compound 428] yielded a minimal effective concentration [1] of 1 to 5 µg/mL, an MIC (Candida albicans (C693)) of 5 to 50 µg/mL (≈ 10.3 to 103 µM) and an MIC (Candida glabrata (C624)) of 5 to 50 µg/mL (≈ 10.3 to 103 µM). For the same compound, the MIC (Candida albicans (C697)) was 1 to 5 µg/mL (≈ 2.06 to 10.3 µM) and the MIC [2] was 0.5 to 1 µg/mL (≈ 1.03 to 2.06 µM).
In the case of `CCOC(=O)C1CCCN(c2c(N3CCN(C(=O)c4ccc5[nH]cnc5c4)CC3)cnn(-c3ccccc3)c2=O)C1` (stereo not shown) [compound 136], the minimal effective concentration [1] is reported as 5 to 50 µg/mL, the MIC (Candida albicans (C693)) is reported as 5 to 50 µg/mL (≈ 9 to 90 µM) and the MIC (Candida glabrata (C624)) is reported as 5 to 50 µg/mL (≈ 9 to 90 µM). The MIC (Candida albicans (C697)) was 5 to 50 µg/mL (≈ 9 to 90 µM) and the MIC [2] was 5 to 50 µg/mL (≈ 9 to 90 µM).
In the case of `Cc1nc[nH]c1CN1CCN(c2cnn(-c3ccccc3)c(=O)c2SCc2ccccc2)CC1` [compound 17], the minimal effective concentration [1] is reported as 5 to 50 µg/mL, the MIC (Candida albicans (C693)) is reported as 5 to 50 µg/mL (≈ 10.6 to 106 µM) and the MIC (Candida glabrata (C624)) is reported as 5 to 50 µg/mL (≈ 10.6 to 106 µM). The MIC (Candida albicans (C697)) was 5 to 50 µg/mL (≈ 10.6 to 106 µM) and the MIC [2] was 5 to 50 µg/mL (≈ 10.6 to 106 µM).
`COc1ccc(CCOc2c(N3CCN(Cc4ccccc4O)CC3)cnn(-c3ccccc3)c2=O)cc1` [compound 316] showed a minimal effective concentration [1] of 1 to 5 µg/mL, an MIC (Candida albicans (C693)) of 5 to 50 µg/mL (≈ 9.75 to 97.5 µM) and an MIC (Candida glabrata (C624)) of 5 to 50 µg/mL (≈ 9.75 to 97.5 µM). It also gave an MIC (Candida albicans (C697)) of 5 to 50 µg/mL (≈ 9.75 to 97.5 µM) and an MIC [2] of 0.5 to 1 µg/mL (≈ 0.975 to 1.95 µM).
`COc1ccc(Sc2c(N3CCN(S(=O)(=O)c4ccccc4)CC3)cnn(-c3ccccc3)c2=O)cc1` [compound 74] showed a minimal effective concentration [1] of 1 to 5 µg/mL, an MIC (Candida albicans (C693)) of 5 to 50 µg/mL (≈ 9.35 to 93.5 µM) and an MIC (Candida glabrata (C624)) of 0.5 to 1 µg/mL (≈ 0.935 to 1.87 µM). The MIC (Candida albicans (C697)) was 1 to 5 µg/mL (≈ 1.87 to 9.35 µM) and the MIC [2] was 1 to 5 µg/mL (≈ 1.87 to 9.35 µM).
With `O=c1c(OCCC2CCCCC2)c(N2CCN(Cc3cccc(O)c3)CC2)cnn1-c1ccccc1` [compound 373] the minimal effective concentration [1] was 5 to 50 µg/mL, the MIC (Candida albicans (C693)) was 5 to 50 µg/mL (≈ 10.2 to 102 µM) and the MIC (Candida glabrata (C624)) was 1 to 5 µg/mL (≈ 2.05 to 10.2 µM). For the same compound, the MIC (Candida albicans (C697)) was 1 to 5 µg/mL (≈ 2.05 to 10.2 µM) and the MIC [2] was 0.5 to 1 µg/mL (≈ 1.02 to 2.05 µM).
In the case of `CCOC(=O)C1CCCN(c2c(N3CCN(C(=O)CSc4nccc(C)n4)CC3)cnn(-c3ccccc3)c2=O)C1` (stereo not shown) [compound 130], the minimal effective concentration [1] is reported as 5 to 50 µg/mL, the MIC (Candida albicans (C693)) is reported as 5 to 50 µg/mL (≈ 8.65 to 86.5 µM) and the MIC (Candida glabrata (C624)) is reported as 1 to 5 µg/mL (≈ 1.73 to 8.65 µM). For the same compound, the MIC (Candida albicans (C697)) was 5 to 50 µg/mL (≈ 8.65 to 86.5 µM) and the MIC [2] was 5 to 50 µg/mL (≈ 8.65 to 86.5 µM).
Compound `Cc1cccc(CN2CCN(c3cnn(-c4ccccc4)c(=O)c3SC(C)C)CC2)c1` [compound 9] has a minimal effective concentration [1] of 5 to 50 µg/mL, an MIC (Candida albicans (C693)) of 5 to 50 µg/mL (≈ 11.5 to 115 µM) and an MIC (Candida glabrata (C624)) of 0.5 to 1 µg/mL (≈ 1.15 to 2.3 µM). It also gave an MIC (Candida albicans (C697)) of 5 to 50 µg/mL (≈ 11.5 to 115 µM) and an MIC [2] of 0.5 to 1 µg/mL (≈ 1.15 to 2.3 µM).
With `O=c1c(OCc2ccccc2)c(N2CCN(Cc3c(Cl)cccc3Cl)CC2)cnn1-c1ccccc1` [compound 339] the minimal effective concentration [1] was 1 to 5 µg/mL, the MIC (Candida albicans (C693)) was 5 to 50 µg/mL (≈ 9.59 to 95.9 µM) and the MIC (Candida glabrata (C624)) was 1 to 5 µg/mL (≈ 1.92 to 9.59 µM). For the same compound, the MIC (Candida albicans (C697)) was 1 to 5 µg/mL (≈ 1.92 to 9.59 µM) and the MIC [2] was 1 to 5 µg/mL (≈ 1.92 to 9.59 µM).
For `CCOC(=O)C1CCCN(c2c(N3CCN(S(=O)(=O)c4c(F)cccc4F)CC3)cnn(-c3ccccc3)c2=O)C1` (stereo not shown) [compound 236], the minimal effective concentration [1] was 1 to 5 µg/mL, the MIC (Candida albicans (C693)) was 1 to 5 µg/mL (≈ 1.7 to 8.51 µM) and the MIC (Candida glabrata (C624)) was 0.5 to 1 µg/mL (≈ 0.851 to 1.7 µM). It also gave an MIC (Candida albicans (C697)) of 1 to 5 µg/mL (≈ 1.7 to 8.51 µM) and an MIC [2] of 1 to 5 µg/mL (≈ 1.7 to 8.51 µM).
`O=c1c(N2CCOCC2)c(N2CCN(S(=O)(=O)Cc3ccccc3)CC2)cnn1-c1ccccc1` [compound 253] gave a minimal effective concentration [1] of 5 to 50 µg/mL, an MIC (Candida albicans (C693)) of 5 to 50 µg/mL (≈ 10.1 to 101 µM) and an MIC (Candida glabrata (C624)) of 1 to 5 µg/mL (≈ 2.02 to 10.1 µM). It also gave an MIC (Candida albicans (C697)) of 1 to 5 µg/mL (≈ 2.02 to 10.1 µM) and an MIC [2] of 1 to 5 µg/mL (≈ 2.02 to 10.1 µM).
With `CCOC(=O)C1CCCN(c2c(N3CCN(C(=O)c4c[nH]c5ccccc45)CC3)cnn(-c3ccccc3)c2=O)C1` (stereo not shown) [compound 114] the minimal effective concentration [1] was 5 to 50 µg/mL, the MIC (Candida albicans (C693)) was 5 to 50 µg/mL (≈ 9.01 to 90.1 µM) and the MIC (Candida glabrata (C624)) was 5 to 50 µg/mL (≈ 9.01 to 90.1 µM). It also gave an MIC (Candida albicans (C697)) of 5 to 50 µg/mL (≈ 9.01 to 90.1 µM) and an MIC [2] of 5 to 50 µg/mL (≈ 9.01 to 90.1 µM).
Work on `COc1ccc(Sc2c(N3CCN(S(=O)(=O)c4cccs4)CC3)cnn(-c3ccccc3)c2=O)cc1` [compound 66] yielded a minimal effective concentration [1] of 1 to 5 µg/mL, an MIC (Candida albicans (C693)) of 5 to 50 µg/mL (≈ 9.25 to 92.5 µM) and an MIC (Candida glabrata (C624)) of 0.5 to 1 µg/mL (≈ 0.925 to 1.85 µM). The MIC (Candida albicans (C697)) was 5 to 50 µg/mL (≈ 9.25 to 92.5 µM) and the MIC [2] was 1 to 5 µg/mL (≈ 1.85 to 9.25 µM).
